Test results taken from patent EP2974721A1, “A PHARMACEUTICAL COMPOSITION COMPRISING A GAS GENERATING INGREDIENT” (Nanomega Medical Corporation, priority 2014, dated 2016).

Assays:
[1] = system: intestinal proteases; test: Inhibition of proteolytic degradation of insulin in isolated proximal small intestine (duodenum); assay type: biochemical; conditions: added to insulin; duodenum freshly isolated from rats; result in words
Excerpt: Inhibition of proteolytic degradation. Inhibiting the proteolytic degradation of insulin in the intestinal fluid and the mucosal layer is critical for increasing its oral bioavailability. The inhibiting effects of DTPA and SDS on intestinal proteases were separately studied in in vitro studies of the proximal portion of the small intestine (i.e., the duodenum) freshly isolated from rats. The various digestive enzymes secreted from the pancreas into the duodenum are well-recognized. […] Insulin is highly sensitive to trypsin and chymotrypsin, which are Ca^2+-dependent enzymes in the intestinal fluid and in the mucosal layer. One strategy for inhibiting intestinal protease activities is using complexing agents such as DTPA to remove essential metal ions (e.g., Ca^2+) from the enzyme structure at vicinity of the bioactive agent. […] Proposed molecular mechanisms of proteolytic inhibition by SDS include local conformational changes or altered charge distributions of the proteases induced by their specific binding of SDS.

[2] = system: Caco-2 cell monolayers; test: Epithelial permeability: transmission of FITC-insulin across cell monolayers (fluorescence microscopy); assay type: cell-based, human; conditions: cells co-cultured with the component; stained for Cld 4, E-cadherin, DAPI; result in words
Excerpt: Cell images of cells bound with nano/micro bubbles.
Enhanced epithelial permeability. Drug permeation may occur across the intestinal epithelium and through either transcellular or paracellular routes. To elucidate the precise mechanisms of interactions between the bubble carrier system and epithelial cells and its subsequent transport of the drug, the effects of DTPA and SDS on epithelial permeability were individually studied using Caco-2 cell monolayers. Monolayers of Caco-2 cells derived from human colorectal adenocarcinoma are widely used in in vitro models for predicting intestinal drug permeability.

Row | Structure (SMILES) | protective effect on insulin against the intestinal proteases [1] | transmission of FITC-insulin (pathway) [2]
1 | CCCCCCCCCCCCOS(=O)(=O)[O-].[Na+] [SDS, sodium dodecyl sulfate] | strong protective effect | promote transmission of FITC-insulin via both of paracellular pathway and transcellular pathway
2 | O=C(O)CN(CCN(CC(=O)O)CC(=O)O)CCN(CC(=O)O)CC(=O)O [DTPA, diethylene triamine pentaacetic acid] | strong protective effect | –
3 | O=C(O)CN(CCN1CC(=O)OC(=O)C1)CCN1CC(=O)OC(=O)C1 [DTPA dianhydride, diethylenetriaminepentaacetic dianhydride] | – | promote transmission of FITC-insulin via paracellular pathway
